9 compounds from PubChem BioAssay (NCI) can be followed below.

Values joined by “and” are separate entries in the source; they are usually repeats but may differ in a detail not shown here. Identical values can stand only once.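 How tested: cells in 96-well plates exposed to compound for 48 hours at five concentrations. GI50 marks 50% less growth. At the TGI there is no net growth.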

Some test systems named below: A498 renal; EKVX NSCLC; ACHN renal; RXF 393 renal; NCI-H522 lung; OVCAR-4 ovarian; NCI-H226 lung; NCI-H460 lung; KM12 colon; SF-268 CNS.
Holding throughout (test): growth of human tumour cells (NCI), 48 h

For `C=C1C(=O)OC2CC(C)C(C(O)CC(C)O)=CCC12` (stereo unspecified), the TGI is 32.1 µM in the assay on A498 renal; 28.6 µM with EKVX NSCLC; 8.95 µM in the assay with ACHN renal; 30.5 µM in the assay on RXF 393 renal; 3.29 µM in the assay on NCI-H522 lung; 42.2 µM with OVCAR-4 ovarian. In addition, the TGI in the assay with NCI-H226 lung amounted to 72.7 µM; in the assay with NCI-H460 lung, 46.6 µM; with KM12 colon, 46.4 µM; in the assay on SF-268 CNS it was 36.4 µM.

Consider `CC(C)OC(=O)[C@H](C)NP(=O)(OC[C@H]1O[C@@H](n2ccc(=O)[nH]c2=O)[C@](C)(F)[C@@H]1O)Oc1ccccc1` (stereo partly specified), for which the GI50 in the assay with A498 renal, in the assay on EKVX NSCLC, with ACHN renal, with RXF 393 renal, in the assay with NCI-H522 lung and in the assay with OVCAR-4 ovarian was more than 100 µM throughout. The GI50 in the assay with NCI-H226 lung, in the assay with NCI-H460 lung, with KM12 colon and in the assay on SF-268 CNS was more than 100 µM throughout. The TGI with A498 renal, in the assay with EKVX NSCLC, in the assay on ACHN renal, in the assay with RXF 393 renal, with NCI-H522 lung and in the assay on OVCAR-4 ovarian was more than 100 µM throughout. In addition, the TGI in the assay with NCI-H226 lung, in the assay with NCI-H460 lung, in the assay on KM12 colon and in the assay with SF-268 CNS was more than 100 µM in each case.

For `O=[N+]([O-])c1ccc(-c2cnc3ccccn23)cc1`, the TGI with A498 renal, in the assay on EKVX NSCLC, in the assay with ACHN renal, in the assay with RXF 393 renal, in the assay with NCI-H522 lung and in the assay with OVCAR-4 ovarian was more than 100 µM throughout. The TGI in the assay on NCI-H226 lung, with NCI-H460 lung, with KM12 colon and in the assay on SF-268 CNS was more than 100 µM throughout.

As to `Nc1ccn(C2OC(CO)C(O)C2O)c(=O)n1` (stereo unspecified), the GI50 in the assay with A498 renal is 12 µM and 4.38 µM and 20.8 µM; in the assay with ACHN renal, 0.195 µM and 0.532 µM; in the assay on RXF 393 renal, 13.6 µM; in the assay on NCI-H226 lung it was 0.637 µM; in the assay with NCI-H460 lung, 0.114 µM and 0.231 µM and 0.12 µM; in the assay with SF-268 CNS, 1.01 µM. In addition, the TGI is > 100 µM and 424 µM with A498 renal; more than 500 µM in the assay on EKVX NSCLC; > 100 µM and > 35 µM and 151 µM with ACHN renal; more than 500 µM in the assay on RXF 393 renal; more than 500 µM in the assay with NCI-H522 lung; more than 500 µM in the assay with OVCAR-4 ovarian. Further, the TGI is more than 500 µM in the assay on NCI-H226 lung; > 100 µM and 418 µM with NCI-H460 lung; more than 500 µM with KM12 colon; more than 500 µM with SF-268 CNS.

Turning to `CC12CCC3c4ccc(O)cc4CCC3C1C/C(=N\O)C2O` (stereo unspecified), the TGI in the assay on A498 renal, in the assay with EKVX NSCLC, with ACHN renal, in the assay on RXF 393 renal, in the assay with NCI-H522 lung and with OVCAR-4 ovarian was more than 100 µM each time. Besides, the TGI in the assay with NCI-H226 lung, with NCI-H460 lung, with KM12 colon and in the assay with SF-268 CNS was more than 100 µM throughout.

In the case of `O=S(=O)(Nc1ccc(Cl)cc1Cl)c1ccc(-c2cnc(C3CC3)o2)cc1`, the GI50 in the assay on A498 renal is 0.197 µM; in the assay with EKVX NSCLC, 2.56 µM; in the assay on ACHN renal, 0.639 µM; in the assay with RXF 393 renal, 0.359 µM; with NCI-H522 lung it was 0.435 µM; in the assay on OVCAR-4 ovarian, 3.72 µM. Moreover, the GI50 is 1.37 µM with NCI-H226 lung, 0.466 µM in the assay with NCI-H460 lung, 0.485 µM in the assay with KM12 colon and 2.85 µM in the assay with SF-268 CNS. Also, the TGI is 0.875 µM with A498 renal; 88.6 µM in the assay with EKVX NSCLC; 21.5 µM in the assay on ACHN renal; 7.41 µM in the assay on RXF 393 renal; 17.3 µM in the assay on NCI-H522 lung; more than 100 µM in the assay with OVCAR-4 ovarian. In addition, the TGI with NCI-H226 lung was 31.1 µM; with NCI-H460 lung, more than 40.4 µM; in the assay with KM12 colon it was 25.9 µM; in the assay with SF-268 CNS, 72.9 µM.

Consider `O=C(NNc1ccccc1)C(=O)NNc1ccccc1`, for which the GI50 with A498 renal is more than 100 µM; in the assay on EKVX NSCLC, more than 100 µM; with ACHN renal it was 2.03 µM; in the assay on RXF 393 renal, more than 100 µM; in the assay on NCI-H522 lung, more than 100 µM; in the assay with OVCAR-4 ovarian, 1.83 µM. The GI50 in the assay on NCI-H226 lung is more than 100 µM; in the assay on NCI-H460 lung, 3.47 µM; in the assay with KM12 colon, 0.535 µM; in the assay with SF-268 CNS it was 1.63 µM. The TGI in the assay with A498 renal, with EKVX NSCLC, in the assay with ACHN renal, in the assay on RXF 393 renal, in the assay on NCI-H522 lung and in the assay with OVCAR-4 ovarian was more than 100 µM throughout. In addition, the TGI in the assay on NCI-H226 lung, in the assay on NCI-H460 lung, in the assay on KM12 colon and with SF-268 CNS was more than 100 µM each time.

`COC(=O)c1ccc(-c2c(C#N)[n+](=O)c3cc(Cl)c(Cl)cc3n2[O-])cc1`: the GI50 in the assay on A498 renal was 38.6 µM; in the assay with EKVX NSCLC, 21.7 µM; with ACHN renal it was 17.2 µM; in the assay with RXF 393 renal, 12.1 µM; in the assay on NCI-H522 lung, 4.12 µM; in the assay on OVCAR-4 ovarian, 19.7 µM. The GI50 in the assay with NCI-H226 lung was 25.7 µM; with NCI-H460 lung, 18.6 µM; with KM12 colon it was 20.9 µM; in the assay with SF-268 CNS it was 16.4 µM. Besides, the TGI was more than 100 µM in the assay on A498 renal; 47.8 µM with EKVX NSCLC; 35.2 µM in the assay on ACHN renal; 28 µM in the assay with RXF 393 renal; more than 100 µM in the assay with NCI-H522 lung; 38 µM with OVCAR-4 ovarian. In addition, the TGI in the assay with NCI-H226 lung turned out to be 70.6 µM; in the assay with NCI-H460 lung it was 44.7 µM; with KM12 colon, 51.3 µM; in the assay with SF-268 CNS it was 32.1 µM.

For `O=C1CCC/C=C\C[C@H]2C=CC(=O)/C2=C/C[C@H](C/C=C\CC(F)(F)F)O1`, the GI50 was 2.56 µM in the assay with A498 renal; 0.893 µM with EKVX NSCLC; 0.333 µM in the assay with ACHN renal; 0.424 µM in the assay on RXF 393 renal; 0.257 µM in the assay on NCI-H522 lung; 0.571 µM in the assay with OVCAR-4 ovarian. The GI50 is 0.382 µM in the assay with NCI-H226 lung, 0.508 µM in the assay on NCI-H460 lung, 0.299 µM in the assay with KM12 colon and 0.522 µM in the assay on SF-268 CNS. Also, the TGI worked out at 4.89 µM in the assay on A498 renal; 3.42 µM in the assay on EKVX NSCLC; 0.629 µM in the assay with ACHN renal; 1.4 µM with RXF 393 renal; 0.537 µM in the assay with NCI-H522 lung; 2.5 µM with OVCAR-4 ovarian. For the same compound, the TGI in the assay on NCI-H226 lung came to 1.01 µM; with NCI-H460 lung it was 1.73 µM; in the assay with KM12 colon, 0.635 µM; in the assay on SF-268 CNS, 2.12 µM.
